Patent US8026221B2, “Method, composition and kit for antigenic binding of norwalk-like viruses” (Children's Hospital Medical Center, priority 2002, dated 2011)

Test system: NV
Assay: Binding of synthetic histo-blood antigen with NLV after glycosidase digestion
Set-up: species or system Norwalk Virus
Details: after digestion with α-N-acetylgalactosaminidase
Description: Thus, the corresponding NLV could not be bound.

## GalNAc-α1→3 (Fuc-α1→2) Gal β-O-space) nBSA [A trisaccharide-BSA]
  Binding with NLV after removal of the antigenic determinant sugar epitope: losses binding
